Here are results for one compound from patent US12508245B2, “Co-therapies including a metastasis inhibitor” (priority 2017, dated 2025).

Data set [1] is described as follows: Pharmacokinetic study of Compound A in mice: stability of the plasma samples (LC-MS/MS). The class given is in vitro ADME. The note with it: mouse plasma samples, K2 EDTA. On the procedure:
Concentrations of Compound A in plasma were determined using high performance liquid chromatography with tandem mass spectrometry (LC MS/MS). All blood samples were transferred into commercial tube containing Potassium (K2) EDTA and processed for plasma. Samples were centrifuged (3000×g for 10 minutes at 2 to 8° C.) within one hour of collection. The assays used a Sciex API 4000 detector and nifedipine as an internal standard. The calibration ranges for Compound A for were 5.00 to 5000 ng/mL. The plasma concentration of Compound A in mice was subjected to a non-compartmental pharmacokinetic analysis by using the Phoenix WinNonlin software (version 6.3, Pharsight, Mountain View, CA). The nominal dose levels and nominal sampling times were used in the calculation of all pharmacokinetic parameters. The linear/log trapezoidal rule was applied in obtaining the PK parameters.

For data set [2], the system named is MDA-MB-231 tumor cells. In words: Overall survival of NSG mice implanted with MDA-MB-231 tumor cells, combination treatment with chemotherapy. The format is in vivo, human. The procedure:
Vehicle solvent was given to control mice once a day for 6 days every week. Starting on day 15, doxorubicin hydrochloride (Sigma) (2 mg/kg) and cyclophosphamide monohydrate (Sigma) (60 mg/kg) were given to mice once a week for four weeks. Primary tumors were removed on day 29. Death of mice was used as the endpoint.

Data set [3] relates to 4T1 breast tumor cells. Briefly: Combination treatment with Compound A and immunotherapy, 4T1 tumor-bearing BALB/c mice, overall survival. The class given is in vivo, mouse. On the procedure:
Female BALB/c mice (6- to 8-week-old) were purchased from Charles River Laboratories. […] Mol Oncol 10, 966-980 (2016). Starting on day 8 or 22, Compound A was given to mice once every day for 5 days a week by oral gavage at 100 mg/kg per mouse. Tumor-bearing mice were given 10 mg/kg anti-PD-1 and 10 mg/kg anti-CTLA-4 antibodies i.p. on day 11, 13, 15, and 17 as previously described. Kim, K. et al. Eradication of metastatic mouse cancers resistant to immune checkpoint blockade by suppression of myeloid-derived cells. Proc Natl Acad Sci USA 111, 11774-11779 (2014). Control group mice were given control mouse IgG at the same time. Primary tumor volume was calculated as length×width^2×π/6.

For data set [4], the system named is 4T1 mouse breast tumor cells.
Method: Female BALB/c mice (6-8 week old) were purchased from Charles River. 4T1 tumor cells (1×10^5) were injected subcutaneously into the abdominal mammary gland area of mice using 0.1 ml of a single-cell suspension in PBS on Day 0 as previously described. […] Starting on Day 8, when the tumors averaged about ˜4-5 mm in diameter, Compound A or control solvent were given once or twice every day by oral gavage at 10, 30, 100 or 300 mg/kg per mouse until Day 27. On Day 28, the mice were sacrificed. […] Numbers of metastatic 4T1 cells in lungs were determined by the clonogenic assay. In brief, lungs were removed from each mouse, finely minced and digested in 5 ml of enzyme cocktail containing 1×PBS and 1 mg/ml collagenase type IV for 2 hours at 37° C. on a platform rocker. After incubation, samples were filtered through 70-μm nylon cell strainers and washed twice with PBS. Resulting cells were suspended, plated with a series of dilutions in 10 cm tissue culture dishes in DMEM medium containing 60 μM thioguanine for clonogenic growth. As 4T1 tumor cells are resistant to 6-thioguanine, metastasized tumor cells formed foci after 14 days, at which time they were fixed with 4% paraformaldehyde and stained with crystal violet staining solution for counting. […]
Data set [5] deals with MDA-MB-231 human breast tumor cells.
Method: MDA-MB-231 cells (subclone LM2) (1×10^5) suspended in PBS were injected subcutaneously into the abdominal mammary gland area of mice on day 1 as previously described. […] On the first day of the ninth week, the mice were killed. […] Numbers of metastatic MDA-MB-231 cells in lungs were determined by the clonogenic assay. In brief, lungs were removed from each mouse once sacrificed, finely minced and digested in 5 ml of enzyme cocktail containing 1×PBS and 1 mg/ml collagenase type IV for 2 h at 37° C. on a platform rocker. After incubation, samples were filtered through 70-μm nylon cell strainers and washed twice with PBS. Resulting cells were suspended, plated with a series of dilutions in 10 cm tissue culture dishes in medium containing 2.0 μg/ml puromycin for clonogenic growth. As these MBA-MB-231 tumor cells were stably transfected with the vector pSuper-puro, metastasized tumor cells formed foci after 14 days, at which time they were fixed with 4% paraformaldehyde and stained with crystal violet staining solution for counting.

Regarding `Cc1occc1C(=O)Nc1nn(Cc2ccc(C(F)(F)F)cc2)c2ccccc12` [NP-G2-044], in data set [1], the “stability after freeze-thaw, and during storage, processing and analysis” value is on record as “stable”. Also, the “overall survival of tumor-bearing mice” value in data set [2] (NSG mice, MDA-MB-231, primary tumors removed on Day 29, NP-G2-044 started on Day 1, chemotherapy for 4 weeks, death as endpoint (FIG. 2b)) is given as “increases overall survival”; in data set [3] (4T1 tumor-bearing mice, anti-PD-1 and anti-CTLA-4 antibodies, death as endpoint (FIG. 3c)) it was “increased the overall survival”. Further, in data set [2] (with chemotherapy, NP-G2-044 starting on day 1 or 8 compared with day 15 (FIG. 2d)), the “overall survival in the combination therapies, earlier versus late start of NP-G2-044” value is reported as “had better effect than late treatment”. In addition, the “immunotherapy response (overall survival) in combination therapy, early treatment” value in data set [3] (NP-G2-044 starting on day 8, with anti-PD-1 and anti-CTLA-4 antibodies (FIG. 3e)) is “boosted the immunotherapy response”. In addition, the “immunotherapy response (overall survival) in combination therapy, late treatment” value in data set [3] (NP-G2-044 starting on day 22, with anti-PD-1 and anti-CTLA-4 antibodies (FIG. 3e)) was “boosted the immunotherapy response”. In addition, the “metastasis to the lung, single agent” value in data set [4] (4T1 cells implanted into the mammary fat pad (FIG. 1f-g)) is “blocks tumor metastasis”; in data set [5] (MDA-MB-231 cells implanted into the mammary fat pad, QD or BID (FIG. 1c-e)), “blocks tumor metastasis”. The “tolerability of the dosage regimen” value is “well tolerated with no signs of overt toxicity” in data set [4] (mouse, in vivo) and “well tolerated with no signs of overt toxicity” in data set [5] (in vivo).
